# Results from the supplement of paper PMC4862054.
# Legend:
# Assay in all cases: normalised response (% of control), CellTox Green; higher = less cell death (100 = DMSO, 0 = benzethonium chloride kill control)
# Conditions in all cases: incubation time: 72 h
# BT-474 = test system: BT-474
# How it was run: (§1)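 Breast cancer cell lines were exposed for 72 h in 384-well plates to compound at 5 concentrations, 10-fold apart, covering a 10,000-fold range fixed for each compound. Plates were read for CellTox Green fluorescence and CellTiter-Glo luminescence and normalised to 0.1 % DMSO (100) and a positive kill control (0). Each value is the normalised signal at one concentration of the series.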
# BT-549 = test system: BT-549
# How it was run: as §1
# CAL-120 = test system: CAL-120
# How it was run: as §1
# CAL-148 = test system: CAL-148
# How it was run: as §1
# CAL-51 = test system: CAL-51
# How it was run: as §1
# CAL-85-1 = test system: CAL-85-1
# How it was run: as §1
# DU-4475 = test system: DU-4475
# How it was run: as §1
# HCC1143 = test system: HCC1143
# How it was run: as §1
# HCC1599 = test system: HCC1599
# How it was run: as §1
# HCC1937 = test system: HCC1937
# How it was run: as §1
# HDQ-P1 = test system: HDQ-P1
# How it was run: as §1
# Hs578T = test system: Hs578T
# How it was run: as §1
# MCF-10A = test system: MCF-10A
# How it was run: as §1
# MDA-MB-231 = test system: MDA-MB-231
# How it was run: as §1
# MDA-MB-436 = test system: MDA-MB-436
# How it was run: as §1
# MDA-MB-453 = test system: MDA-MB-453
# How it was run: as §1
# MDA-MB-468 = test system: MDA-MB-468
# How it was run: as §1
# MFM-223 = test system: MFM-223
# How it was run: as §1
SMILES,normalised response (BT-474) [%],normalised response (BT-549) [%],normalised response (CAL-120) [%],normalised response (CAL-148) [%],normalised response (CAL-51) [%],normalised response (CAL-85-1) [%],normalised response (DU-4475) [%],normalised response (HCC1143) [%],normalised response (HCC1599) [%],normalised response (HCC1937) [%],normalised response (HDQ-P1) [%],normalised response (Hs578T) [%],normalised response (MCF-10A) [%],normalised response (MDA-MB-231) [%],normalised response (MDA-MB-436) [%],normalised response (MDA-MB-453) [%],normalised response (MDA-MB-468) [%],normalised response (MFM-223) [%]
COc1ncc(-c2ccc3nccc(-c4ccnnc4)c3c2)cc1NS(=O)(=O)c1ccc(F)cc1F (100 nM),69.1,94.8,102,67,70,99.1,99.6,110,106,90.5,86,85.2,97.7,91.2,93.5,95,89.5,76.5
COc1ncc(-c2ccc3nccc(-c4ccnnc4)c3c2)cc1NS(=O)(=O)c1ccc(F)cc1F (1000 nM),36.8,70.9,102,45,46.1,52.1,83.9,107,88.6,7.68,78.8,35.8,73.1,64.3,104,73.4,-111,78.7
C[C@@]1(C(=O)Nc2ccc(F)nc2)CCCN1c1nc(Nc2cc(C3CC3)n[nH]2)c2cccn2n1 (1000 nM),97.7,104,98.1,88.8,49.5,95,90.6,68.5,97.6,93.8,82.1,110,80.4,76.2,90.8,104,52.5,76.7
C[C@@]1(C(=O)Nc2ccc(F)nc2)CCCN1c1nc(Nc2cc(C3CC3)n[nH]2)c2cccn2n1 (10000 nM),95.3,65.3,26.9,59.1,18.7,67.8,90.2,-57.9,90.1,104,34.9,82.1,25.8,49.8,90.4,109,49.8,71.2
COc1c(C)cnc(Cn2cnc3c(Cl)nc(N)nc32)c1C [BIIB021] (1000 nM),77.3,139,95.5,26.9,71.2,71.3,68.5,90.5,107,108,90.4,63.4,1.93,71.8,80.9,102,135,99.3
COc1c(C)cnc(Cn2cnc3c(Cl)nc(N)nc32)c1C [BIIB021] (10000 nM),49.4,130,94.9,49.2,58.2,39,80.3,126,113,107,40.1,89.7,52.8,48.7,106,93.5,96.8,93.4
CC(C)C[C@H](NC(=O)[C@H](Cc1ccccc1)NC(=O)c1cnccn1)B(O)O [Bortezomib] (100 nM),67.6,55.3,35.5,-26.8,-29,-7.21,89.7,83.5,87.5,-5.94,9.79,15.4,74,-41.1,28.8,92.7,-55.4,39.2
CC(C)C[C@H](NC(=O)[C@H](Cc1ccccc1)NC(=O)c1cnccn1)B(O)O [Bortezomib] (1000 nM),59.7,43.7,14.2,38,15.4,-48,76.1,27.3,81.6,25.3,9.5,39.2,15.3,-42.8,6.1,70.9,-84,53.7
CS(=O)(=O)OCCCCOS(C)(=O)=O [Busulfan] (10000 nM),101,108,103,106,113,103,102,121,82,106,95.2,94.5,104,108,74,103,96.5,97.1
O=c1[nH]c(=O)n([C@H]2C[C@H](O)[C@@H](CO)O2)cc1F [Floxuridine] (1000 nM),102,111,98.4,–,71,89.6,106,122,104,126,98,98.3,116,86,108,110,125,102
